# Experimental data as given in patent US10100372B2, “Recombinant RSV reporter virus” (priority 2014, dated 2018).
# Read-outs that look alike come from different tables or passages of the source. *1 amine or outer side, *2 acyl side, *3 side chain or, on linkers, in order; H or OH if unused. Where a SMILES comes first, the peptide text is derived from it. Bridges are numbered along the chain shown (N, C = ends). Roman numbers before positions name the chains, in order. [ ]: non-standard residue; d: D form. Actinocin(9to1) = Cc1c2oc3c(C)ccc(C(=O)[*:1])c3nc-2c(C(=O)[*:2])c(N)c1=O; NMeV = CN[C@H](C(=O)O)C(C)C; Sar = CNCC(=O)O
# Legend:
# [1] = test system: recIAV WSN-NanoLuc; assay: microbe, parasite or virus in culture; assay type: cell-based, influenza virus IAV/WSN/33 (H1N1); settings: for inhibition at 5 µM: unidentified influenza virus, WSN, BEAS-2B, read-out: % Inhibition (anti-IAV)
# [2] = test system: recRSV A2-L19FD489E-fireSMASh; assay: microbe, parasite or virus in culture; assay type: cell-based, Respiratory Syncytial Virus; settings: 384-well, four replicate screens, mean ± SD, BEAS-2B co-infection; for inhibition at 5 µM: human respiratory syncytial virus, read-out: % Inhibition (anti-RSV)
# [3] = test system: recRSV A2-L19FD489E-fireSMASh; assay: microbe, parasite or virus in culture; settings: human respiratory syncytial virus, BEAS-2B, read-out: EC50 RSV A2-L19FD489E-fireSMASh
# [4] = test system: recIAV WSN-NanoLuc; assay: microbe, parasite or virus in culture; settings: Influenza A virus, BEAS-2B, read-out: EC50 IAV WSN-nanoLuc
# [5] = test system: recIAV WSN-NanoLuc; settings: for SI [CC50/EC50] IAV: SIIAV
# [6] = test system: recRSV A2-L19FD489E-fireSMASh; settings: for SI [CC50/EC50] RSV: SIRSV
# [7] = test system: recRSV A2-L19F-renilla; assay: microbe, parasite or virus in culture; assay type: cell-based; settings: BEAS-2B; for EC50: read-out: EC50 RSV A2-L19F-renilla
# [8] = in vitro; settings: human
# [9] = test system: BEAS-2B cells; settings: highest concentration 10 μM, tox = less than 50% cell viability after 44 hours at ≤10 μM
# [10] = biological target: RSV F protein (Human respiratory syncytial virus, UniProt P12568); settings: resistance sites in the RSV F protein; cited from earlier work
# Sequence of RSV F protein (P12568 137-574 limits assumed): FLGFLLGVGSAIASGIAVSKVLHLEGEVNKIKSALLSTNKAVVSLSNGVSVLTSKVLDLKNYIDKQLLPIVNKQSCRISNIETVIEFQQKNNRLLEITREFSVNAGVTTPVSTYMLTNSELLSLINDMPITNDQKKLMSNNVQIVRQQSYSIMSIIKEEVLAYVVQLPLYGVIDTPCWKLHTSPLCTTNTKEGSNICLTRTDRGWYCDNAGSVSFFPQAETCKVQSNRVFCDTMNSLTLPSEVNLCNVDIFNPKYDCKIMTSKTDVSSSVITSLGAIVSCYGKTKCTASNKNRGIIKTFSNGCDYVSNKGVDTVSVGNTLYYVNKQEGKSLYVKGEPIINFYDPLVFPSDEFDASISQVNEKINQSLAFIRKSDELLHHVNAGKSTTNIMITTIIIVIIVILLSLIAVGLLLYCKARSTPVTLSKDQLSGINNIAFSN
# Sequence of RSV F protein (P12568 26-109 partner limits assumed): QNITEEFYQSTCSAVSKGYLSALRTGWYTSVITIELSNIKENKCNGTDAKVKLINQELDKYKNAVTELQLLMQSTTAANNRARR
# [11] = test system: RSV A2 strain; settings: cited from earlier work
# [12] = test system: recRSV A2-L19F-ren; assay type: cell-based; settings: GPAR-3710 added later than four hours post-infection; JMN3-003 added eight hours post-infection
# [13] = BEAS-2B, 95% confidence interval in parentheses, inactive = less than 50% reduction of mean reporter signal
# [14] = 95% confidence interval in parentheses, inactive = less than 50% reduction of mean reporter signal
# [15] = human respiratory syncytial virus, 95% confidence interval in parentheses, inactive = less than 50% reduction of mean reporter signal
# [16] = active concentrations based on in vitro assays, when available RSV A2 strain
compound,measurement,setting,value
"Cc1c2oc3c(C)ccc(C(=O)N[C@@H]4C(=O)N[C@H](C(C)C)C(=O)N5CCC[C@H]5C(=O)N(C)CC(=O)N(C)[C@@H](C(C)C)C(=O)O[C@@H]4C)c3nc-2c(C(=O)N[C@@H]2C(=O)N[C@H](C(C)C)C(=O)N3CCC[C@H]3C(=O)N(C)CC(=O)N(C)[C@@H](C(C)C)C(=O)O[C@@H]2C)c(N)c1=O [Actinomycin D] (I: T[dV]P[Sar][NMeV] / II: T[dV]P[Sar][NMeV]; ester I:1-I:C, II:1-II:C; linker I:N-II:N via Actinocin(9to1))",% Inhibition (anti-IAV),[1]; 5 μM,104 ± 1.5%
same,% Inhibition (anti-RSV),[2]; 5 μM,52 ± 9.6%
Nc1nc(N)c2nc(CNc3ccc(C(=O)N[C@@H](CCC(=O)O)C(=O)O)cc3)cnc2n1 [Aminopterin],EC50,[3],0.07 µM
same,EC50,[4],0.09 µM
same,SI [CC50/EC50] IAV,[5],SIIAV 111
same,SI [CC50/EC50] RSV,[6],SIRSV 143
same,EC50,[7]; human respiratory syncytial virus,0.05 µM
same,CC50,[8],10 µM
CC(=O)OC[C@H]1O[C@@H]([S-])[C@H](OC(C)=O)[C@@H](OC(C)=O)[C@@H]1OC(C)=O.CCP(CC)CC.[Au+] [Auranofin],CC50 (PrestoBlue cell viability),[9],tox^d
COc1cc2nc(N3CCCN(C)CC3)nc(NC3CCN(Cc4ccccc4)CC3)c2cc1OC [BIX 01294],EC50 IAV WSN-nanoLuc,[5]; [13],inactive^e
same,EC50 RSV A2-L19FD489E-fireSMASh,[6]; [13],inactive^e
same,EC50 RSV A2-L19F-renilla,[7]; [14],inactive^e
same,CC50,[8],> 10 µM
O=c1n(Cc2nc3ccccc3n2CCCCO)c2cnccc2n1C1CC1 [BMS-433771],reported resistance sites,[10],FF140I FV144A FD392G FK394R FD489Y
same,EC50,[11],0.01 µM
Cc1c(-c2ccc(-c3ccccc3F)cc2)nc2ccc(F)cc2c1C(=O)O [Brequinar],EC50,[3],1.6 µM
same,EC50,[4],2.6 µM
same,SI [CC50/EC50] IAV,[5],SIIAV >3.8
same,SI [CC50/EC50] RSV,[6],SIRSV >6.3
same,EC50,[7]; [15],1.8 µM
same,CC50,[8],> 10 µM
CNc1ccc2oc(C[C@H]3O[C@@]4(CC[C@H]3C)O[C@H]([C@H](C)C(=O)c3ccc[nH]3)[C@H](C)C[C@H]4C)nc2c1C(=O)O [Calcimycin],CC50 (PrestoBlue cell viability),[9],tox^d
CC[C@H]1CN2CCc3cc(OC)c(OC)cc3[C@@H]2C[C@@H]1C[C@H]1NCCc2cc(OC)c(OC)cc21 [Emetine],CC50 (PrestoBlue cell viability),[9],tox^d
COc1cccc2c1C(=O)c1c(O)c3c(c(O)c1C2=O)C[C@@](O)(C(=O)CO)C[C@@H]3O[C@H]1C[C@H](N)[C@@H](O)[C@H](C)O1 [Epirubicin],inhibition at 5 µM,[1],75 ± 3.1%
same,inhibition at 5 µM,[2],62 ± 6.3%
COc1cc([C@@H]2c3cc4c(cc3[C@@H](O[C@@H]3O[C@@H]5CO[C@@H](C)O[C@H]5[C@H](O)[C@H]3O)[C@H]3COC(=O)[C@H]23)OCO4)cc(OC)c1O [Etoposide],inhibition at 5 µM,[1],56 ± 5.6%
same,inhibition at 5 µM,[2],80 ± 6.6%
CC1=C(/C=C/C(C)=C/C=C/C(C)=C/C(=O)Nc2ccc(O)cc2)C(C)(C)CCC1 [Fenretinide],EC50,[3],3.6 µM
same,EC50 IAV WSN-nanoLuc,[5]; [13],inactive^e
same,effect on IAV reporter strain,[5]; highest concentration tested,unaffected
same,SI [CC50/EC50] RSV,[6],SIRSV >2.8
same,selectivity for RSV reporter,[6]; dose-response counterscreen,selectively inhibited RSV
same,EC50,[7]; [15],4.8 µM
same,CC50,[8],> 10 µM
Nc1ccn([C@@H]2O[C@H](CO)[C@@H](O)C2(F)F)c(=O)n1 [Gemcitabine],EC50,[3],0.09 µM
same,EC50,[4],0.1 µM
same,SI [CC50/EC50] IAV,[5],SIIAV >100
same,SI [CC50/EC50] RSV,[6],SIRSV >111
same,EC50,[7]; [15],0.05 µM
same,CC50,[8],> 10 µM
COC(=O)C[C@](O)(CCCC(C)(C)O)C(=O)O[C@@H]1C(OC)=C[C@]23CCCN2CCc2cc4c(cc2[C@H]13)OCO4 [Homoharringtonine],inhibition at 5 µM,[1],90 ± 2.6%
same,inhibition at 5 µM,[2],98 ± 0.5%
CC(=O)[C@]1(O)Cc2c(O)c3c(c(O)c2[C@@H](O[C@H]2C[C@H](N)[C@H](O)[C@H](C)O2)C1)C(=O)c1ccccc1C3=O [Idarubicin],inhibition at 5 µM,[1],97 ± 1%
same,inhibition at 5 µM,[2],95 ± 1.3%
same,CC50 (PrestoBlue cell viability),[9],tox^d
COc1ccc(-n2c(SC(C)C(=O)Nc3ccc(C)cc3Cl)nc3ccccc32)cc1 (stereo not drawn) [JMN3-003],antiviral activity in time-of-addition study,[12],remained potently inhibitory
Cc1ccc(O)c(Cn2c(NC3CCN(CCN)CC3)nc3c(C)cccc32)n1 [JNJ2408068],reported resistance sites,[10],FK399I FD486N FE487D
same,EC50,[11]; [16],0.0021 µM
Nc1nc2c(c(=O)[nH]1)C[C@@H](CCc1ccc(C(=O)N[C@@H](CCC(=O)O)C(=O)O)cc1)CN2 [Lometrexol],CC50 (PrestoBlue cell viability),[9],tox^d
CN(Cc1cnc2nc(N)nc(N)c2n1)c1ccc(C(=O)N[C@@H](CCC(=O)O)C(=O)O)cc1 [Methotrexate],inhibition at 5 µM,[1],100 ± 0.6%
same,inhibition at 5 µM,[2],99 ± 0.5%
CCOC(=O)C1=C(C)NC(C)=C(C(=O)OC)C1c1cccc([N+](=O)[O-])c1 (stereo not drawn) [Nitrendipine],EC50 IAV WSN-nanoLuc,[5]; [13],inactive^e
same,EC50 RSV A2-L19FD489E-fireSMASh,[6]; [13],inactive^e
same,EC50 RSV A2-L19F-renilla,[7]; [14],inactive^e
same,CC50,[8],> 10 µM
Cn1c(=O)c(-c2c(Cl)cccc2Cl)cc2cnc(Nc3ccc(N4CCOCC4)cc3)nc21 [PD173952],CC50 (PrestoBlue cell viability),[9],tox^d
CCN(CC)CCOc1ccc(Nc2ncc3cc(-c4c(Cl)cccc4Cl)c(=O)n(C)c3n2)cc1 [PD-166285],CC50 (PrestoBlue cell viability),[9],tox^d
c1cnc2c(c1)ccc1cccnc12 [Phenanthroline],CC50,[8],2.4 µM
Cc1ccc(O)c(Cn2c(NC3CCN(CCN)CC3)nc3c(C)cccc32)n1 [R170591],reported resistance sites,[10],FF488I FF488L FD489Y
same,EC50,[11]; [16],0.002 µM
Cc1nc2ccc(CN(C)c3ccc(C(=O)N[C@@H](CCC(=O)O)C(=O)O)s3)cc2c(=O)[nH]1 [Raltitrexed],inhibition at 5 µM,[1],60 ± 6.5%
same,inhibition at 5 µM,[2],91 ± 1%
NC(=O)c1ncn([C@@H]2O[C@H](CO)[C@@H](O)[C@H]2O)n1 [Ribavirin],EC50,[3],2.6 µM
same,EC50,[4],4.5 µM
same,SI [CC50/EC50] IAV,[5],SIIAV >2.2
same,SI [CC50/EC50] RSV,[6],SIRSV >3.9
same,EC50,[7]; [15],2.9 µM
same,CC50,[8],> 10 µM
CN(CCOc1ccc(CC2SC(=O)NC2=O)cc1)c1ccccn1 (stereo not drawn) [Rosiglitazone],inhibition at 5 µM,[1],35 ± 5%
same,inhibition at 5 µM,[2],85 ± 5.8%
C[n+]1cc2c3c(ccc2c2ccc4cc5c(cc4c21)OCO5)OCO3 [Sanguinarine],CC50 (PrestoBlue cell viability),[9],tox^d
CCN(CC)CCNC(=O)c1c(C)[nH]c(/C=C2\C(=O)Nc3ccc(F)cc32)c1C [Sunitinib],CC50 (PrestoBlue cell viability),[9],tox^d
Cc1ccc(CCCO)c(NCc2ccc3nc(NCCCN4CCOCC4)n(Cc4nc(C)ccc4O)c3c2)c1 [TMC353121],reported resistance sites,[10],FK394R FS398L FD486N
same,EC50,[11],0.00013 µM
Cn1nnc2c(C(N)=O)ncn2c1=O [Temozolomide],inhibition at 5 µM,[1],55 ± 3.2%
same,inhibition at 5 µM,[2],96 ± 1.3%
Nc1nc(N)c2nc(-c3ccccc3)c(N)nc2n1 [Triamterene],EC50 IAV WSN-nanoLuc,[5]; [13],inactive^e
same,EC50 RSV A2-L19FD489E-fireSMASh,[6]; [13],inactive^e
same,EC50 RSV A2-L19F-renilla,[7]; [14],inactive^e
same,CC50,[8],> 10 µM
CC(C)[C@]12O[C@H]1[C@@H]1O[C@]13[C@]1(O[C@H]1C[C@H]1C4=C(CC[C@@]13C)C(=O)OC4)[C@@H]2O [Triptolide],inhibition at 5 µM,[1],103 ± 1.2%
same,EC50,[3],0.4 µM
same,EC50,[4],0.15 µM
same,SI (CC50/EC50) value at dose-response testing,[5]; virus not given,below two
same,inhibition at 5 µM,[2],1.5 ± 21%
same,EC50,[7]; [15],0.6 µM
same,CC50,[8],0.3 µM
Cc1nnnn1/N=C/c1ccc(O)c(C(c2ccc(O)cc2)c2cc(/C=N/n3nnnc3C)ccc2O)c1 [VP-14637],reported resistance sites,[10],FT400A FF488Y
same,EC50,[11]; [16],0.0014 µM
CC[C@]1(O)C[C@H]2CN(CCc3c([nH]c4ccccc34)[C@@](C(=O)OC)(c3cc4c(cc3OC)N(C=O)[C@H]3[C@@](O)(C(=O)OC)[C@H](OC(C)=O)[C@]5(CC)C=CCN6CC[C@]43[C@@H]65)C2)C1 [Vincristine],inhibition at 5 µM,[1],50 ± 2.9%
same,inhibition at 5 µM,[2],79 ± 6.9%
CC(=O)N[C@H]1[C@H]([C@H](O)[C@H](O)CO)OC(C(=O)O)=C[C@@H]1N=C(N)N [Zanamivir],EC50,[4],0.02 µM
same,SI [CC50/EC50] IAV,[5],SI^IAV >500
same,selectivity for IAV reporter,[5]; dose-response counterscreen,selectively inhibited the IAV reporter
same,EC50 RSV A2-L19FD489E-fireSMASh,[6]; [13],Inactive
same,EC50 RSV A2-L19F-renilla,[7]; [14],Inactive
same,CC50,[8],> 10 µM
ET-18-OCH3,EC50 IAV WSN-nanoLuc,[5]; [13],inactive^e
same,EC50 RSV A2-L19FD489E-fireSMASh,[6]; [13],inactive^e
same,CC50,[9]; read-out: CC50 (PrestoBlue cell viability),> 10 µM
same,EC50 RSV A2-L19F-renilla,[7]; [14],inactive^e
Stattic,SI [CC50/EC50] IAV,[5],SIIAV 3
same,EC50,"[5]; read-out: EC50 IAV WSN-nanoLuc, BEAS-2B, 95% confidence interval in parentheses, inactive = less than 50% reduction of mean reporter signal",3.3 µM
same,EC50,"[6]; read-out: EC50 RSV A2-L19FD489E-fireSMASh, BEAS-2B, 95% confidence interval in parentheses, inactive = less than 50% reduction of mean reporter signal",5.9 µM
same,EC50,[7]; [14],15.1 µM
